Experiments:
Assay type in all cases: cell-based
[1] = system: P23H mutant mouse rhodopsin fused with Renilla luciferase (Rluc); assay: Rluc (luciferase) reporter assay in Hek293 (RHO^P23H-Rluc) cells; conditions: for Efficacy, Rluc assay Hek293 (RHO^P23H − Rluc): 24 h, DMSO 0%, Evans Blue −100% controls; for EC50: 24 h compound treatment, dose-response, triplicate
Description: (§1) Two Hek293 stable cell lines, Hek293 (RHO^WT-Rluc) and Hek293 (RHO^P23H-Rluc) cells were generated which stably express the WT and P23H mutant mouse rhodopsin each fused with a Renilla luciferase (Rluc) for the luciferase reporter assay as previously described. Briefly, the Hek 293 cells (ATCC, Manassas, VA, USA) were transfected with the pcDNA3.1 Zeo containing the cDNA of mouse WT or P23H rhodopsin fused with a Rluc 8 (a gift from Dr. Navine Lambert at Augusta University, Augusta, GA USA) and transfected cells were incubated in Dulbecco's modified Eagle's medium (DMEM, Genesee Scientific, E1 Cajon, CA USA) with 10% fetal bovine serum (FBS, Gibco Laboratories, Gaithersburg, MD USA) for 48 h before addition of 400 μg/mL of Zeocin (InvivoGen, San Diego, CA USA) for positive clone selection. Colonies of cells survived from 1 week of Zeocin selection were collected, and expression of WT and P23H rhodopsin were confirmed by a luciferase assay and immunoblotting of rhodopsin with positive bands of monomers at about 70 kD (FIG. 8). The difference of molecular masses between WT and P23H rhodopsin proteins was due to differences in glycosylation, which was also seen in the NIH3T3 cells expressing the WT and P23H rhodopsin proteins.
(§2) The HTS was performed at three facilities, including University of Cincinnati (UC), Case Western Reserve University, and National Center for Advancing Translational Sciences (NCATS), testing a total of six compound collections. These compound collections include: 1) the UC 10K Diversity Set (10,011 compounds), 2) the Life Chemicals 50K Collection (50,560), 3) the Spectrum Collection (2,400 compounds), 4) the LOPAC collection (1,280 compounds), 5) the FDA collection (2,816 compounds), and 6) the NCATS MIPE collection (1,912 compounds). […] For the compound collections 1), 2) and 3), we firstly tested each compound using the P23H rhodopsin luciferase reporter assay at a single dose for once (9.93 to 16.13 μM) in 384-well format, and we identified 2072 compounds with activity scores lower than the cutoff at mean-2SD. Activity scores were normalized using DMSO treated cells as 0% control and the 1 mM Evans Blue treated cells as −100% control. From these hit compounds, we excluded those reported with luciferase inhibitor activities and cherry-picked the rest for hit confirmation. Each hit was tested at 10 μM in the Hek293 (RHO^P23H-Rluc) cells again by the luciferase reporter assay in triplicates, and the confirmed hits with activity scores lower than-50% were then counter screened for their effects on Rluc activity by the recombinant Rluc activity assay, and on WT rhodopsin level by the luciferase reporter assay in the Hek293 (RHO^WT-Rluc) cells at 10 μM in triplicates, respectively. […] Next, we tested the dose responses of these confirmed hits in both the Hek293 (RHO^P23H-Rluc) and the Hek293 (RHO^WT-Rluc) cells and identified compounds that selectively favored the clearance of P23H than WT rhodopsin in a dose-dependent manner (Table 4). For the compound collections 4)-6), we tested each compound directly at 7 or 11 doses using the luciferase reporter assay in the Hek293 (RHO^P23H-Rluc) cells in 1536-well format, and identified 128 compounds with efficacy smaller than-50% and EC50<20 μM.
(§3) The Rluc reporter assay has been described before. HTS was undertaken in 384-well format for the UC 10K Diversity Set, Spectrum Collection and the Life Chemicals 50K diversity set, and in 1536-well format for the FDA, LOPAC, and MIPE collections. Using the 384-well format as an example, Hek (RHO^P23H-Rluc) cells were seeded in 384-well white-wall clear-bottom plates (assay plates) at 3×10^5/mL for 40 μL/well by an 8-channel Multiflo liquid dispenser (Bioteck, Winooski, VT USA). The assay plates were centrifuged at 300×g for 30 s and cultured at 37° C. with 5% CO2 overnight. […]

[2] = system: WT mouse rhodopsin fused with Renilla luciferase (Rluc); assay: Rluc reporter counter screen in Hek293 (RHO^WT-Rluc) cells; conditions: for Efficacy, Rluc assay Hek293 (RHO^WT − Rluc): 24 h, DMSO 0%, Evans Blue −100% controls; for EC50: 24 h compound treatment, dose-response, triplicate
Description: as §1, §2, §3

P23H rhodopsin [3] = assay: Rhodopsin dot blot of NIH3T3 stable cells; conditions: 10 μM, 24 h, vs DMSO
Experimental: NIH3T3 (RHO^P23H/GFP) or NIH3T3 (RHO^WT/GFP) cells were seeded at 2.5×10^4 cells/well in 100 μL/well complete medium in a 96-well plate and cultured at 37° C. with 5% CO2 for 4 h. Cells then were treated with 100 μL/well complete medium containing 2×the final concentration of tested compounds. After 24 h of further incubation at 37° C. with 5% CO2, the medium was aspirated, and the cells were washed once with PBS. The cell lysis buffer containing radioimmunoprecipitation assay (RIPA) buffer and complete protease inhibitor cocktail (Roche Diagnostics, Basel, Switzerland) were added to the cells at 200 μL/well followed by sonication for 6 s. Because the cellular protein level of RHO^WT was higher than RHO^P23H, 5% of one well NIH3T3 (RHO^WT/GFP) cells samples and 90% of one well NIH3T3 (RHO^P23H/GFP) cells samples were loaded to a nitrocellulose membrane and air-dried. Opsin protein was immunostained with 0.1 μg/mL HRP-conjugated 1D4 anti-rhodopsin antibody. Densitometry of the bands was measured by the ImageJ software and normalized to DMSO-treating control.

P23H rhodopsin [4] = assay: Non-radioactive pulse-chase assay in NIH3T3 (RHO^P23H/GFP) cells; conditions: 10 μM; for Rate of Rho^P23H degradation (Pulse-chase): 24 h of chase, vs DMSO; for BTN-AHA labeled P23H rhodopsin at 24 h of chase: in comparison to DMSO control
Experimental: To quantify rhodopsin degradation, a non-radioactive pulse-chase assay was used with a ‘click’ reaction. Briefly, NIH3T3 (Rho^P23H/GFP) or NIH3T3 (Rho^WT/GFP) cells were cultured in a 24-well plate at 3×10^5 cells/well in the complete medium with 10% FBS. The medium was aspirated after overnight culture, and cells were gently washed once with 1 mL/well of PBS. Cell were incubated in the L-methionine-free DMEM (Gibco, 21013-024, Gaithersburg, MD USA) for 1 h to exhaust the intracellular methionine. Then the cells were pulsed with L-AHA at final concentration 50 μM for 4 h. Meanwhile, the cells treated with 50 μM L-methionine were used as negative control. After labeling, cells were replaced with the complete DMEM medium with 2 mM L-methionine in the presence or absence of active compounds for a varying time of chase. Then cells were lysed with PBS containing 0.1% SDS, 1% DDM and the complete protease inhibitor cocktail. The total protein concentrations were measured by a BCA assay. Cell lysate containing 200 μg total protein was mixed with 5 μM BTN-sDIBO to make a ‘click’ reaction for 1 h at 37° C. Samples were incubated with Dynabeads™ Protein G binding with 1D4 anti-rhodopsin antibody for 15 min at room temperature followed by three washes with PBS containing 0.02% Tween 20. Proteins were eluted with 50 mM Glycine at pH 2.8 for 10 min at room temperature and then loaded onto nitrocellulose membranes. After air-dried, the membranes were blocked with 5% milk and immunoblotted with 0.25 μg/mL HRP-conjugated SA.

Compound | EC50 [1] | Efficacy, Rluc assay Hek293 (RHO^P23H − Rluc) [1] | Efficacy, Rluc assay Hek293 (RHO^WT − Rluc) [2] | EC50 [2] | Rho protein level (Dot blot) (P23H rhodopsin [3]) | Rate of Rho^P23H degradation (Pulse-chase) (P23H rhodopsin [4]) | BTN-AHA labeled P23H rhodopsin at 24 h of chase (P23H rhodopsin [4])
O=C(NC1CCNCC1)c1n[nH]cc1NC(=O)c1c(Cl)cccc1Cl [CL-006] | 1.7 µM | −66.2% | −42.9% | 1.52 µM | Down | No Change | –
CN(Cc1cnc2nc(N)nc(N)c2n1)c1ccc(C(=O)N[C@@H](CCC(=O)O)C(=O)O)cc1 [CL-009, N-[4-[[(2,4-diamino-6-pteridinyl)methyl]methylamino]benzoyl]-L-glutamic acid] | 0.43 µM | −53.0% | – | – | Down | Up | significantly reduced
CC(=O)OC(CC(=O)O)C[N+](C)(C)C (stereo not drawn) [CL-002] | 2 µM | −86.1% | −62.0% | 3.4 µM | Down | Up | significantly reduced
CCn1cnc2c(N)ncnc21 [CL-007] | 13 µM | −72.5% | −51.7% | 11 µM | Down | Up | significantly reduced
NCC(=O)COP(=O)(O)O [CL-005] | 6.6 µM | −78.2% | −57.9% | 4.2 µM | Down | Up | significantly reduced

Continued, in another order:

EC50 [1] | Compound | Efficacy, Rluc assay Hek293 (RHO^P23H − Rluc) [1] | Efficacy, Rluc assay Hek293 (RHO^WT − Rluc) [2] | EC50 [2] | Rho protein level (Dot blot) (P23H rhodopsin [3]) | Rate of Rho^P23H degradation (Pulse-chase) (P23H rhodopsin [4]) | BTN-AHA labeled P23H rhodopsin at 24 h of chase (P23H rhodopsin [4])
0.93 µM | CCC(C)(O)C(O)C(=O)O (stereo not drawn) [CL-008] | −89.5% | −52.7% | 0.59 µM | Down | No Change | –
1.1 µM | CC(=O)OC(CC(=O)[O-])C[N+](C)(C)C (stereo not drawn) [CL-001] | −69.4% | −44.3% | 1 µM | Down | Up | significantly reduced
1.6 µM | CC(O)CN (stereo not drawn) [CL-004] | −68.6% | −45.5% | 0.92 µM | Down | No Change | –
0.89 µM | O=C(O)C1=CC=CC(O)C1O (stereo not drawn) [CL-003] | −65.3% | −37.7% | 1.5 µM | Down | No Change | –

— patent US12678440B2, “Compositions and methods for treating misfolded protein ocular disorders” (CASE WESTERN RESERVE UNIVERSITY, priority 2020, dated 2026)
